Results reported in US20040005311A1, “Dietary supplement compositions” (priority 2003, published 2004).

Tested on: Alzheimer's disease-related / dementia-related symptoms
Experiment: Dietary supplementation of dementia subjects (case accounts by caregiver and physician)
Type: in vivo, human
Settings: Subject #3; diet also supplemented with yellow corn, pineapple and tomato sauce products
Procedure: Prior to addressing the patient's dementia problem, a complete diagnosis of the subject was performed by a qualified physician.
The diets of these four subjects were also supplemented, to varying degrees, with yellow corn, pineapple and tomato sauce products.

For `CC(C)=CCC/C(C)=C/C=C/C(C)=C/C=C/C(C)=C/C=C/C=C(C)/C=C/C=C(C)/C=C/C=C(\C)CCC=C(C)C` [lycopene], the “symptoms (memory loss, anxiety, eating less)” value was “still exhibiting reduced symptoms”.
